Reference: PubChem BioAssay (NCI)
“And” between values parts separate entries of the source, which are not always exact repeats. Identical values can stand only once.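 Cells were grown in 96-well plates and exposed to each compound for 48 hours at five concentrations; endpoints were interpolated linearly between bracketing concentrations, or set to the highest concentration if not reached. GI50 = concentration required for 50% inhibition of growth. At the TGI there is no net growth.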

Assays:
Test in all cases: NCI anticancer screen, dose series, 48 h
786-0 renal = test system: 786-0 renal
A549 NSCLC = test system: A549 NSCLC
CCRF-CEM leukemia = test system: CCRF-CEM leukemia
EKVX NSCLC = test system: EKVX NSCLC
KM12 colon = test system: KM12 colon
NCI-H522 lung = test system: NCI-H522 lung
OVCAR-8 ovarian = test system: OVCAR-8 ovarian
SF-539 CNS = test system: SF-539 CNS
SK-MEL-2 melanoma = test system: SK-MEL-2 melanoma
TK-10 renal = test system: TK-10 renal

Compound | GI50 (786-0 renal) | TGI (786-0 renal) | GI50 (A549 NSCLC) | TGI (A549 NSCLC) | GI50 (CCRF-CEM leukemia) | TGI (CCRF-CEM leukemia) | GI50 (EKVX NSCLC) | TGI (EKVX NSCLC) | GI50 (KM12 colon) | TGI (KM12 colon) | GI50 (NCI-H522 lung) | TGI (NCI-H522 lung) | GI50 (OVCAR-8 ovarian) | TGI (OVCAR-8 ovarian) | GI50 (SF-539 CNS) | TGI (SF-539 CNS) | GI50 (SK-MEL-2 melanoma) | TGI (SK-MEL-2 melanoma) | GI50 (TK-10 renal) | TGI (TK-10 renal)
O=C(N/N=C/c1ccccc1O)C(O)(c1ccccc1)c1ccccc1 | > 100 µM | > 100 µM | 9.67 µM | > 100 µM | 2.26 µM | > 100 µM | 3.6 µM | > 100 µM | 9.93 µM | > 100 µM | 19.7 µM | > 100 µM | 13.1 µM | > 100 µM | > 100 µM | > 100 µM | 53.1 µM | > 100 µM | > 100 µM | > 100 µM
Cc1nc2ccccn2c1NC(=O)NNC(=S)Nc1ccc(Br)cc1 | 41.7 µM | > 100 µM | 71.6 µM | > 100 µM | 40.1 µM | > 100 µM | 46.4 µM | > 100 µM | 35.4 µM | > 100 µM | 30.1 µM | 79.1 µM | 63.8 µM | > 100 µM | 22.4 µM | 55.2 µM | 77.8 µM | > 100 µM | 74.1 µM | > 100 µM
C=CCCCn1ccc2ccccc21 | – | > 100 µM | – | > 100 µM | – | > 100 µM | – | > 100 µM | – | > 100 µM | – | > 100 µM | – | > 100 µM | – | > 100 µM | – | > 100 µM | – | > 100 µM
Cc1cc(C(=O)Nc2nc3cccc(Cl)c3n2[C@@H]2CCCCN(C(=O)/C=C/CN(C)C)C2)ccn1 | 3.78 µM | 21.6 µM | 6.37 µM | 31.8 µM | 12.5 µM | 56.2 µM | 0.518 µM | 18.7 µM | 9.43 µM | 25.6 µM | 0.108 µM | 14.4 µM | 11.4 µM | 40.3 µM | 15.1 µM | 29.5 µM | 17.5 µM | 34.2 µM | 1.07 µM | 16.4 µM
O=C1OC(c2ccccc2)=N/C1=C\c1ccc2ccccc2c1 | – | > 100 µM | – | > 100 µM | – | > 100 µM | – | > 100 µM | – | > 100 µM | – | > 100 µM | – | > 100 µM | – | > 100 µM | – | > 100 µM | – | > 100 µM
C[C@H](N)C(=O)N[C@@H]1[C@H]2C(=C(O)C[C@@H](O)[C@@H]2O)C(=O)O[C@]1(C)C(Cl)Cl | 0.246 µM | 10.9 µM and 1.8 µM | 0.271 µM | 4.92 µM and 2.81 µM | 0.108 µM and 0.087 µM | 2.25 µM and 1.58 µM | 0.472 µM | 4.66 µM and 2.23 µM | 0.255 µM | 1.99 µM and 1.52 µM | 0.191 µM | 0.955 µM and 0.755 µM | 0.255 µM | 3.12 µM and 1.18 µM | 0.326 µM | 2.37 µM and 0.88 µM | 0.308 µM | 1.49 µM and 0.958 µM | 0.685 µM | 6.92 µM and 2.06 µM
O=C(c1ccc(OCCN2CCCCC2)cc1)c1c(-c2ccc(O)cc2)sc2cc(O)ccc12 | 4.5 µM and 7.58 µM | 18.2 µM and 27.6 µM | 13.2 µM and 14.3 µM | 29.3 µM and 37.9 µM | 5.55 µM and 1.85 µM | 43.9 µM and > 29.8 µM | 9.34 µM and 12.8 µM | 25.7 µM and 33.9 µM | 4.49 µM and 9.32 µM | 15.3 µM and 34.3 µM | 11 µM and 16.5 µM | 28.6 µM and 37.3 µM | 13.4 µM and 18.2 µM | 31.5 µM and 51.3 µM | 12.1 µM and 11 µM | 27.2 µM and 25.7 µM | 15.8 µM and 14.9 µM | 35.2 µM and 33.8 µM | 16.7 µM and 16.3 µM | 31.8 µM and 33.3 µM
CC1=C(C(=O)Nc2ccccc2C)C(c2ccc(C3C(C(=O)Nc4ccccc4C)=C(C)NC(C)=C3C(=O)Nc3ccccc3C)cc2)C(C(=O)Nc2ccccc2C)=C(C)N1 | – | 17.3 µM | – | 27.8 µM | – | 7.82 µM | – | 19.2 µM | – | 4.75 µM | – | 3.72 µM | – | 8.57 µM | – | 8.57 µM | – | 31.6 µM | – | 24.2 µM
CNC1C(O)C(OC2C(N)CC(N)C(OC3OC(CN)=CCC3N)C2O)OCC1(C)O (stereo unspecified) | – | > 100 µM | – | > 100 µM | – | > 100 µM | – | > 100 µM | – | > 100 µM | – | > 100 µM | – | > 100 µM | – | > 100 µM | – | > 100 µM | – | –
COc1cc2c3c(c4ccc(OC)c(OC)c4c2cc1OC)CN1CCC[C@@H]1C3 | – | 1.78 µM | – | – | – | 0.651 µM | – | 0.378 µM | – | 0.965 µM | – | 0.792 µM | – | 0.264 µM | – | 0.425 µM | – | 0.237 µM | – | 3.88 µM
CC(=O)NC(CCCCN(Cc1ccccc1)C(=O)NCCCl)C(=O)NCc1ccccc1 (stereo unspecified) | – | > 100 µM | – | > 100 µM | – | > 100 µM | – | > 100 µM | – | > 100 µM | – | > 100 µM | – | > 100 µM | – | > 100 µM | – | > 100 µM | – | –
CC(C)N(C(=O)C1(C)CC1)C(C)C | – | > 100 µM | – | > 100 µM | – | > 100 µM | – | > 100 µM | – | > 100 µM | – | > 100 µM | – | > 100 µM | – | > 100 µM | – | > 100 µM | – | –
